{"source": "patent US6413948B1", "about": "“Pharmaceutical compositions and methods of effecting a neuronal activity in an animal using naaladase inhibitors” (Guilford Pharmaceuticals Inc., priority 1996, dated 2002)", "key": {"cortical cell cultures [1]": {"tested_on": "cortical cell cultures", "test": "In vitro assay of NAALADase inhibitors on ischemia (potassium cyanide and 2-deoxyglucose, LDH release)", "assay_type": "cell-based, rats", "description": "The methods for this assay are described in detail below.\nDissociated cortical cell cultures are prepared using the papain-dissociation method of Heuttner and Baughman (1986) as modified by Murphy and Baraban (1990). […] Fetuses of embryonic day 17 are removed from timed pregnancy rats (Harlan Sprague Dawley). The cortex is rapidly dissected out in Dulbecco's phosphate-buffered saline, stripped of meninges, and incubated in a papain solution for 15 minutes at 37° C. The tissue is then mechanically triturated and pelleted at 500 g (1000-2000 rpm on swinging bucket Beckman). The pellet is resuspended in a DNAase solution, triturated with a 10 ml pipette ×15-20, layered over a “10×10” solution containing albumin and trypsin inhibitor (see TABLE VII for an example of a “10×10” solution), repelleted, and resuspended in a plating medium containing 10% fetal bovine serum (HyClone A-1111-L), 5% heat-inactivated Equine serum (HyClone A-3311-L), and 84% modified Earle's basal medium (MEM) (Gibco 51200-020) with high glucose (4.5 g/L), and 1 g/L NaHCO3. Each 24-well plate is pretreated with poly-D-lysine (0.5 ml/well of 10 μg/ml) for 1 h and rinsed with water before plating. Cultures are plated at 2.5×10^6 cells/ml with each well of a 24 well plate receiving 500 μl/well. Alternatively, 35 mm dishes can be plated at 2 ml/dish, 6 well plates at 2 ml/well, or 12 well plates at 1 ml/well. After plating, 50% of the medium is changed every 3-4 days with growth serum containing 5% heat-inactivated Equine serum (HyClone A3111-L), 95% modified Earle's basal medium (MEM)(Gibco 51200-020), and 1% L-Glutamine (Gibco 25030-081). Experiments are performed after 21 days in cultures. Cultures are maintained in a 5% CO2 atmosphere at 37° C.\nTwenty-one to twenty-four days following the initial cortical cell plating, the experiment is performed. The cultures are washed three times in HEPES buffered saline solution containing no phosphate. […] At the end of 24 hours, the cultures are analyzed for release of the cytosolic enzyme lactate dehydrogenase (LDH), a standard measure of cell lysis. LDH measurements are performed according to the method of Koh and Choi, J. Neuroscience Methods (1987)."}, "cortical cell cultures [2]": {"tested_on": "cortical cell cultures", "test": "In vitro assay of NAALADase inhibitors on toxicity of NAAG", "assay_type": "cell-based, rats", "settings": "inhibitor 1 μM", "experimental": "Dissociated cortical cell cultures are prepared using the papain-dissociation method of Heuttner and Baughman (1986) as modified by Murphy and Baraban (1990). See TABLE VII for the Dissociated Culture Protocol as used herein. Fetuses of embryonic day 17 are removed from timed pregnancy rats (Harlan Sprague Dawley). The cortex is rapidly dissected out in Dulbecco's phosphate-buffered saline, stripped of meninges, and incubated in a papain solution for 15 minutes at 37° C. The tissue is then mechanically triturated and pelleted at 500 g (1000-2000 rpm on swinging bucket Beckman). The pellet is resuspended in a DNAase solution, triturated with a 10 ml pipette ×15-20, layered over a “10×10” solution containing albumin and trypsin inhibitor (see TABLE VII for an example of a “10×10” solution), repelleted, and resuspended in a plating medium containing 10% fetal bovine serum (HyClone A-1111-L), 5% heat-inactivated Equine serum (HyClone A-3311-L), and […] modified Earle's basal medium (MEM) (Gibco 51200-020) with high glucose (4.5 g/L), and 1 g/L NaHCO3. Each 24-well plate is pretreated with poly-D-lysine (0.5 ml/well of 10 μg/ml) for 1 h and rinsed with water before plating. Cultures are plated at 2.5×10^6 cells/ml with each well of a 24 well plate receiving 500 μl/well. Alternatively, 35 mm dishes can be plated at 2 ml/dish, 6 well plates at 2 ml/well, or 12 well plates at 1 ml/well. After plating, 50% of the medium is changed every 3-4 days with growth serum containing 5% heat-inactivated Equine serum (HyClone A3111-L), 95% modified Earle's basal medium (MEM)(Gibco 51200-020), and 1% L-Glutamine (Gibco 25030-081). Experiments are performed after 21 days in cultures. Cultures are maintained in a 5% CO2 atmosphere at 37° C. These methodologies are described in further detail below in the TABLE VII.\nAt the end of exposure, the cells are washed once with HEPES buffered saline solution and then replaced with serum free modified Earle's basal medium. The cultures are then returned to the CO2 incubator for 24 hour recovery.\nRelease of the cytosolic enzyme lactate dehydrogenase (LDH), a standard measure of cell lysis, is used to quantify injury (Koh and Choi, 1987). LDH-activity measurements are normalized to control for variability between culture preparations (Koh and Choi, 1987). […] This control measurement is subtracted from each experimental point. […] Only main effects of NAALADase inhibitors are considered; interactions between dose and condition are not examined statistically."}, "[3]": {"tested_on": "SHRSP rats which had sustained middle cerebral artery occlusion (MCAO)", "test": "In vivo assay on cortical injury following MCAO in SHRSP rats", "text": "A colony of SHRSP rats is bred at Johns Hopkins School of Medicine from three pairs of male and female rats obtained from the National Institutes of Health (Laboratory, Sciences Section, Veterinary Resources Program, National Center for Research Resources, Bethesda, Md.). All rats are kept in a virus-free environment and maintained on regular diet (NIH 31, Zeigler Bros, Inc.) with water ad libitum. All groups of rats are allowed to eat and drink water until the morning of the experiment.\nTransient occlusion of the middle cerebral artery (MCA) is induced by advancing a 4-0 surgical nylon suture into the internal carotid artery (ICA) to block the origin of the MCA (Koizumi, 1986; Longa, 1989; Chen, 1992). The rats are anesthetized with 4% halothane, and maintained with 1.0% to 1.5% halothane in air enriched oxygen using a face mask. Rectal temperature is maintained at 37.0±0.5° C. throughout the surgical procedure using a heating lamp. The right femoral artery is cannulated for measuring blood gases (pH, oxygen tension [PO2], carbon dioxide tension [PCO2]) before and during ischemia, for monitoring blood pressure during the surgery. The right common carotid artery (CCA) is exposed through a midline incision; a self-retraining retractor is positioned between the digastric and mastoid muscles, and the omohyoid muscle is divided. The right external carotid artery (ECA) is dissected and ligated. The occipital artery branch of the ECA is then isolated and coagulated. Next, the right internal carotid artery (ICA) is isolated until the pterygopalatine artery is exposed, and carefully separated from the adjacent vagus nerve. The pterygopalatine artery is ligated with 4-0 silk suture close to its origin.\nAfter the CCA is ligated with 4-0 silk suture, a 4-0 silk suture to prevent bleeding from a puncture site, through which a 2.5 cm length of 4-0 monofilament nylon suture (Ethilon), its tip rounded by heating near a electric cautery, is introduced into the ICA lumen. A 6-0 silk suture is tightened around the intraluminal nylon suture at the bifurcation to prevent bleeding, and the stretched sutures at the CCA and the ICA are released. The nylon suture is then gently advanced as far as 20 mm.\nAnesthesia is terminated after 10 minutes of MCA occlusion in both groups, and the rats were awakened 5 minutes thereafter. After 2 hours of ischemia, anesthesia is reanesthetized, and reperfusion is performed by withdrawing the intraluminal nylon suture until the distal tip became visible at the origin of the ICA.\nArterial pH and PaCO2, and partial pressure of oxygen (PaO2) are measured with a self-calibrating Radiometer electrode system (ABL 3; Copenhagen, Denmark). Hemoglobin and arterial oxygen content are measured with a hemoximeter (Radiometer, Model OSM3; Copenhagen, Denmark). Blood glucose is measured with a glucose analyzer (model 2300A, Yellow Springs Instruments, Yellow Springs, Ohio).\nEach group is exposed to 2 hours of right MCA occlusion and 22 hours of reperfusion. All variables but the rectal temperature are measured at baseline, at 15 minutes and 45 minutes of right MCA occlusion. The rectal temperature is measured at baseline, at 0 and 15 min of MCA occlusion, and at 0 and 22 hours of reperfusion."}, "[4]": {"settings": "10 mg/kg followed by 2 mg/kg/hr for 1 hour"}, "[5]": {"settings": "100 mg/kg followed by 20 mg/kg/hr for one hour"}}, "data": [{"compound": "O=C(O)CCC(CP(=O)(O)O)C(=O)O", "note": "(stereo not drawn) [2-(phosphonomethyl)pentanedioic acid]", "values": [{"measurement": "% Toxicity", "setting": "cortical cell cultures [1]; ischemic insult, 100 pM", "value": "66.57 ± 4.38 (n = 5) %"}, {"measurement": "% Toxicity", "setting": "cortical cell cultures [1]; ischemic insult, 1 nM", "value": "42.31 ± 9.34 (n = 5) %"}, {"measurement": "% Toxicity", "setting": "cortical cell cultures [1]; ischemic insult, 10 nM", "value": "33.08 ± 9.62 (n = 5) %"}, {"measurement": "% Toxicity", "setting": "cortical cell cultures [1]; ischemic insult, 100 nM", "value": "30.23 ± 9.43 (n = 5) %"}, {"measurement": "% Toxicity", "setting": "cortical cell cultures [1]; ischemic insult, 1 μM", "value": "8.56 ± 8.22 (n = 5) %"}, {"measurement": "% Toxicity", "setting": "cortical cell cultures [1]; time of administration: Delayed 30 Minutes", "value": 31.49, "unit": "%"}, {"measurement": "% Toxicity", "setting": "cortical cell cultures [1]; time of administration: Exposure & Recovery", "value": 2.54, "unit": "%"}, {"measurement": "% Toxicity", "setting": "cortical cell cultures [1]; time of administration: Recovery Only", "value": 9.03, "unit": "%"}, {"measurement": "% Toxicity", "setting": "cortical cell cultures [2]; NAAG 3 μM", "value": "−4.71 (n = 1) %"}, {"measurement": "% Toxicity", "setting": "cortical cell cultures [2]; NAAG 10 μM", "value": "−3.08 ± 0.81 (n = 3) %"}, {"measurement": "% Toxicity", "setting": "cortical cell cultures [2]; NAAG 30 μM", "value": "−4.81 ± 1.13 (n = 3) %"}, {"measurement": "% Toxicity", "setting": "cortical cell cultures [2]; NAAG 100 μM", "value": "−2.87 ± 0.78 (n = 3) %"}, {"measurement": "% Toxicity", "setting": "cortical cell cultures [2]; NAAG 300 μM", "value": "−2.09 ± 0.48 (n = 3) %"}, {"measurement": "% Toxicity", "setting": "cortical cell cultures [2]; NAAG 1 mM", "value": "0.26 ± 1.11 (n = 3) %"}, {"measurement": "% Toxicity", "setting": "cortical cell cultures [2]; NAAG 3 mM", "value": "16.83 ± 8.76 (n = 3) %"}, {"measurement": "Cortical Injury Volume (% injury) ± S.E.M.", "setting": "[3]; [4]", "value": "29.14 ± 7.68 (n = 10) % injury"}, {"measurement": "Cortical Injury Volume (mm^3) ± S.E.M.", "setting": "[3]; [4]", "value": "135.00 ± 32.18 (n = 10) mm^3"}, {"measurement": "Cortical Protection (% protection)", "setting": "[3]; [4]", "value": 27, "unit": "%"}, {"measurement": "Cortical Injury Volume (% injury) ± S.E.M.", "setting": "[3]; [5]", "value": "13.98 ± 6.64 (n = 10) % injury"}, {"measurement": "Cortical Injury Volume (mm^3) ± S.E.M.", "setting": "[3]; [5]", "value": "65.23 ± 32.18 (n = 10) mm^3"}, {"measurement": "Cortical Protection (% protection)", "setting": "[3]; [5]", "value": 65, "unit": "%"}]}]}
